Values quoted from earlier work as cited in patent US12503489B2, “Method for producing antibody-drug conjugate” (DAIICHI SANKYO COMPANY, LIMITED, priority 2017, dated 2025).

Molecular target: T1, topoisomerase I (Homo sapiens, UniProt P11387)
T1 sequence (P11387 1-765): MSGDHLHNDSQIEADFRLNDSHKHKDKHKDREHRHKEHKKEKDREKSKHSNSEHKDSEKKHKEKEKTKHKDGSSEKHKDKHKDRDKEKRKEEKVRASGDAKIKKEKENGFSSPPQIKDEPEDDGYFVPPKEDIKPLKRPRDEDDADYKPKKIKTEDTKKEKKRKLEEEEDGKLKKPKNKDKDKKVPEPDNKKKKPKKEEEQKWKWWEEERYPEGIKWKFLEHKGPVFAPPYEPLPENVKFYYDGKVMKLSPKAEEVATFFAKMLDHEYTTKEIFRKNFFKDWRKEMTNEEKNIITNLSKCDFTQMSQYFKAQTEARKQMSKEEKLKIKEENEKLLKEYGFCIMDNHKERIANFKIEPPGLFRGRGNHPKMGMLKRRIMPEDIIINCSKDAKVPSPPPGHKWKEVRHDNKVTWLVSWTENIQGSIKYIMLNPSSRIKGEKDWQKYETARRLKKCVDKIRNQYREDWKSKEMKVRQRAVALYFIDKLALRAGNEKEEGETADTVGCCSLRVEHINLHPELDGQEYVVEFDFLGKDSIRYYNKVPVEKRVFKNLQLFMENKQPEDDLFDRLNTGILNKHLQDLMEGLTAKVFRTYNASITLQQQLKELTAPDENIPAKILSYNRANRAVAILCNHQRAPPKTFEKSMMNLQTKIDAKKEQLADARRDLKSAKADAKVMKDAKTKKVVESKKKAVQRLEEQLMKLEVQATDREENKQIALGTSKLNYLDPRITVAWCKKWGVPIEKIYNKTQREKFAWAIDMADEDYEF
Conditions: Ogitani Y. et al., Clinical Cancer Research 2016; 22 (20): 5097-5108

## CC[C@@]1(O)C(=O)OCc2c1cc1n(c2=O)Cc2c-1nc1cc(F)c(C)c3c1c2[C@@H](NC(=O)CO)CC3 [formula (22)]
  topoisomerase I inhibitory effect: confirmed to have a topoisomerase I inhibitory effect
